According to a melting point compilation (Tetko et al.; mined from patent text by program, amines drawn as free bases though some values may be those of a salt):

Compared with `CCC(CCC1(C(N)=O)c2ccccc2-c2ccccc21)NC(C)C` (stereo not given), `O=C(O)CC(NC(=O)OCC1c2ccccc2-c2ccccc21)C(F)(F)F` (stereo not given) is higher in melting point: 161 to 163 °C for the first, 187 to 189 °C for the second.

First: COc1cccc(-c2cc(C(=O)NCCCCCCCCc3ccccc3)cc(-c3cccc(OC)c3OCC(=O)O)c2)c1
Second: O=C(NCCO)c1cccc(-c2cccc3nn(Cc4cccc(F)c4)cc23)c1
The melting point of the first is lower: 67.3 to 68.7 °C for the first, 187 to 188 °C for the second.

First: COc1ccc2ccc(C(O)C(F)(F)F)cc2c1 (stereo not given)
Second: Cc1cnc(-c2ccc(C(F)(F)F)cc2)n1C
The melting point of the first is lower: 85 to 87 °C for the first, 130 °C for the second.

First: CCOC(=O)C=Cc1cc([N+](=O)[O-])c(F)cc1Cl
Second: COC(=O)c1c(C)c([N+](=O)[O-])cc2nc(Cl)c(Cl)nc12
The melting point of the first is lower: 86 to 88 °C for the first, 155 to 157 °C for the second.

First: CN(CCOc1ccc(/C=C/CO)cc1F)c1ccccn1
Second: O=C(O)COc1cccc2c1Cc1sc(S(=O)(=O)CC=Cc3ccccc3)nc1-2
The melting point of the first is lower: 80 to 81 °C for the first, 212 to 214 °C for the second.

First: CC(=O)Nc1cccc(-c2nc3sccn3c2-c2ccnc(N[C@@H]3CCCN(S(=O)(=O)c4ccc(Cl)cc4)C3)n2)c1
Second: CSCC(=O)Nc1cc(-c2c(-c3ccc(F)c(C)c3)nc3cccnn23)ccn1
The melting point of the first is higher: 169 to 174 °C for the first, 155 to 156 °C for the second.

First: O=C(N[C@@H](Cc1ccc(-c2c(O)cccc2O)cc1)C(=O)O)c1c(Cl)cccc1Cl
Second: O=C(O)c1oc(=O)c2cc(Cl)c(Cl)cc2c1-c1ccccc1
The melting point of the first is lower: 238 °C for the first, 243 to 244 °C for the second.

Compared with `COc1cccc2c1nc(C(F)F)n2-c1nc(N2CCOCC2)nc(N2CCC(NS(=O)(=O)C(F)(F)F)CC2)n1`, `C[C@]1(CN2CCN(NCc3ccc(C(F)(F)F)cc3)CC2)Cn2cc([N+](=O)[O-])nc2O1` is lower in melting point: 282 to 285 °C for the first, 131 to 136 °C for the second.

Going from `CCOC(=O)c1cc2cccc(N(C)S(=O)(=O)c3nccn3C)c2[nH]1` to `CS(=O)(=O)c1cc(CCC(=O)O)cc(-c2nc(=O)c3ccccc3s2)n1`, the melting point rises from 120 °C to 306 °C.

First: CCCCCOc1ccc(C(=O)c2cccc3ccccc23)c2ccccc12
Second: c1ccc(C(c2ccccc2)N2C(=NCCCn3ccnc3)c3cccc4cccc2c34)cc1
The melting point of the first is lower: 72 to 75 °C for the first, 142 to 143 °C for the second.

First: CC1(C)CCC2(CC1S(=O)(=O)c1ccccc1)OCCO2 (stereo not given)
Second: CC(OC(=O)C1N2C(=O)C(NC(=O)Cc3ccccc3)C2S(=O)C1(C)C)C1CC1 (stereo not given)
The melting point of the first is lower: 113 to 115 °C for the first, 158 to 159 °C for the second.

First: CC(O)Cn1nc2c3c(ccc([N+](=O)[O-])c31)CCC2 (stereo not given)
Second: CS(=O)(=O)c1ccc(N2CCC(=O)CC2)cc1
The melting point of the first is lower: 144 to 146 °C for the first, 183 to 185 °C for the second.

First: CCN(CC)CCOC(=O)c1ccc2nc3n(c(=O)c2c1)C(C)CC3=Cc1ccccc1 (stereo not given)
Second: COC(=O)CC1c2cc(OC)ccc2N(c2nc3ccccc3nc2Cl)C1C (stereo not given)
The melting point of the first is lower: 125 to 130 °C for the first, 155 to 157 °C for the second.

First: NC(=O)C(F)(F)C(F)(F)C(=O)C(F)(F)F
Second: O=C1c2cc(F)ccc2OCC1C(=O)C(F)(F)F (stereo not given)
The melting point of the first is lower: 82 to 87 °C for the first, 107 to 112 °C for the second.

Going from `CC(Oc1ccc2nc(NC(=O)NCCN3CCOCC3)sc2c1)c1c(Cl)ccc(F)c1Cl` (stereo not given) to `CC(=O)OCCCN1CCC(CNC(=O)[C@@H]2CCCN2S(=O)(=O)c2ccc(Cl)c(COc3cccc4c(-n5cccn5)cc(C)nc34)c2Cl)CC1`, the melting point falls from 110 °C to 89 °C.

First: COC(=O)Cc1ccccc1OCc1ccccc1
Second: CN(C[C@H]1CC[C@H](c2nc3ccccc3[nH]2)CC1)C(=O)OCc1ccccc1
The melting point of the first is lower: 74 to 75 °C for the first, 146 to 148 °C for the second.

First: Nc1cccc(C(=O)O)c1S(=O)(=O)CCO
Second: C#Cc1ccc(NC(=O)CCCC(=O)O)cc1
The melting point of the first is lower: 75 to 77 °C for the first, 135 to 140 °C for the second.

First: CN(C)S(=O)(=O)c1cc([N+](=O)[O-])c(N)c([N+](=O)[O-])c1
Second: Cc1c(Cl)c(C(F)(F)F)nn1-c1cc(OS(C)(=O)=O)c(Cl)cc1F
The melting point of the first is higher: 169 to 170 °C for the first, 72 to 74.5 °C for the second.

First: O=S1(=O)NC(Cl)=Nc2ccc(Cl)cc21
Second: N=C(NO)c1ccc(Cl)nc1
The melting point of the first is higher: 242 to 244 °C for the first, 185 to 186 °C for the second.

First: COC(=O)C(=Cc1cc(OC)cc(OC)c1)c1ccc(Oc2ccc(C=C3SC(=O)NC3=O)cc2)cc1
Second: COc1ccc(-c2[nH]nc3c2C(=O)c2c(NC(=O)NN(C)C)cccc2-3)cc1
The melting point of the first is lower: 126 to 128 °C for the first, > 300 °C for the second.

First: CCCCNC1=CC(=O)c2c(OC)ccc(OC)c2C1=O
Second: COc1cccc(CC[C@H](O)CO[Si](C)(C)C(C)(C)C)c1O
The melting point of the first is higher: 104 to 105 °C for the first, 44 to 46 °C for the second.

Compared with `O=C(O)c1c2c(nc3ccc(F)cc13)-c1ccc(C3CCCCC3)cc1CC2`, `COCCOC(=O)c1ccc(C(C(N)=O)C(C)c2ccccc2N2CCCCC2)cc1` (stereo not given) is higher in melting point: 118 to 121 °C for the first, 155 to 157 °C for the second.

First: COC(COc1ccc(Br)c(C)c1C)OC
Second: Cc1ccc(OCC(=O)N(Cc2nc(-c3ccc(C)cc3)no2)C(C)C)cc1
The melting point of the first is lower: 40 to 41 °C for the first, 142 to 143 °C for the second.

Compared with `CSc1ccc(-c2cc(=O)nc(N)o2)cc1`, `COc1cc(O)c(Cl)c2cc(-c3ccc(O)cc3)oc12` is lower in melting point: 266 to 267 °C for the first, 176 to 177 °C for the second.

`NS(=O)(=O)C1=CC2=C(OCCO)CCS(=O)(=O)C2S1` (stereo not given) and `CC(=O)N[C@H]1CCC(=O)N2CCC[C@@H](C(=O)OC(C)(C)C)N2C1=O` cannot be ordered by melting point: 159 to 164 °C for the first, 162 to 163 °C for the second.

First: CCc1cccc(C)c1CNc1cc(Cn2ccnc2)cn2nc(C)nc12
Second: Cc1cccc2nc(NC(=O)c3ccc(C(C)(C)CCC(=O)O)cc3)cn12
The melting point of the first is lower: 158 °C for the first, 260 °C for the second.

First: COc1nc(NCCc2ccccc2)c2cc(C)sc2n1
Second: CC(C)(C)C(NC(=O)CCc1ccccc1)Nc1c(Nc2cccnc2Cl)c(=O)c1=O (stereo not given)
The melting point of the first is lower: 138 °C for the first, 160 to 161 °C for the second.

Compared with `COC1(c2nc3ccccc3s2)C=CC(=O)C=C1`, `c1ccc2c(c1)[nH]c1cccc(OCC3CO3)c12` (stereo not given) is higher in melting point: 123 °C for the first, 133 °C for the second.

Compared with `Nc1cccc(-c2cc3[nH]c4ccc(O)cc4c3c3c2C(=O)NC3=O)c1`, `Cc1nnc(-c2ccc3occ(-c4ccc5c(c4)C(C)(C)CS5(=O)=O)c3c2)o1` is lower in melting point: 279 to 284 °C for the first, 242 to 243 °C for the second.

First: CC1(C)Oc2ccc(C#N)cc2C(NC(=O)C(N)c2ccccc2)C1O (stereo not given)
Second: CC(C)(C)c1ccc(C2=NC[C@@H](OC(=O)Nc3ccccc3)[C@H](c3ccccc3)O2)cc1 (racemic)
The melting point of the first is higher: 109 to 111 °C for the first, 80 °C for the second.

First: O=C(Nc1ccc(NC(=S)NCc2ccccc2)cc1)c1ccc(NC(=S)NCc2ccccc2)cc1
Second: O=C(Nc1n[nH]c(=S)s1)NC(Cc1ccccc1)C(=O)NCc1cccnc1 (stereo not given)
The melting point of the first is higher: 207 °C for the first, 99 to 101 °C for the second.

Compared with `CN(CCCCCCNC(=NCCCOc1cccc(CN2CCCCC2)c1)NC#N)CCN(Cc1ccc(F)cc1)c1ccccn1`, `CCOc1nn(-c2ccc(C(F)(F)F)cn2)cc1CCCOc1cccc(CC(=O)O)c1` is higher in melting point: 58 °C for the first, 134 to 135 °C for the second.

First: OC(CCn1ccnc1)c1ccc(Br)cc1 (stereo not given)
Second: CCOCC(=O)NC1CCN(C[C@@]23C[C@@H](c4ccccc42)c2ccc(Cl)cc23)CC1
The melting point of the first is higher: 104 to 110 °C for the first, 68 to 70 °C for the second.

First: Cc1c(C2(N(C)C)CCC(c3cccc(F)c3)(N(C)C)CC2)[nH]c2ccccc12 (stereo not given)
Second: O=C1OCc2c1cc1ccc3c(c1c2-c1ccc(OC(F)(F)F)cc1)OCO3
The melting point of the first is lower: 126 to 132 °C for the first, 222 to 225 °C for the second.

Compared with `CCCCCCCCCCCCCCCCNc1c(Cl)cc(C(=O)O)cc1Cl`, `CCOC(=O)/C(=N\OCC#N)c1csc(N)n1` is higher in melting point: 92 to 94 °C for the first, 167 to 168 °C for the second.
